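These data come from cells grown in 96-well plates and exposed to compound for 48 hours at five concentrations. At the GI50, growth is halved. TGI: total growth inhibition.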
Assays:
Experiment in all cases: growth of human tumour cells (NCI), 48 h
UACC-257 melanoma = tested on: UACC-257 melanoma
SF-268 CNS = tested on: SF-268 CNS
CCRF-CEM leukemia = tested on: CCRF-CEM leukemia
IGROV1 ovarian = tested on: IGROV1 ovarian
MCF7 breast = tested on: MCF7 breast
DU-145 prostate = tested on: DU-145 prostate
OVCAR-4 ovarian = tested on: OVCAR-4 ovarian
SK-MEL-2 melanoma = tested on: SK-MEL-2 melanoma
TK-10 renal = tested on: TK-10 renal
EKVX NSCLC = tested on: EKVX NSCLC
LOX IMVI melanoma = tested on: LOX IMVI melanoma
UACC-62 melanoma = tested on: UACC-62 melanoma
M14 melanoma = tested on: M14 melanoma
HCT-116 colon = tested on: HCT-116 colon
NCI-H460 lung = tested on: NCI-H460 lung
HCC-2998 colon = tested on: HCC-2998 colon
RPMI-8226 leukemia = tested on: RPMI-8226 leukemia
786-0 renal = tested on: 786-0 renal
NCI-H522 lung = tested on: NCI-H522 lung
BT-549 breast = tested on: BT-549 breast
KM12 colon = tested on: KM12 colon
CAKI-1 renal = tested on: CAKI-1 renal
A498 renal = tested on: A498 renal
SW-620 colon = tested on: SW-620 colon
SNB-75 CNS = tested on: SNB-75 CNS
NCI/ADR-RES ovarian = tested on: NCI/ADR-RES ovarian
NCI-H23 lung = tested on: NCI-H23 lung
SNB-19 CNS = tested on: SNB-19 CNS
T-47D breast = tested on: T-47D breast
NCI-H226 lung = tested on: NCI-H226 lung
PC-3 prostate = tested on: PC-3 prostate
UO-31 renal = tested on: UO-31 renal
HT29 colon = tested on: HT29 colon
COLO 205 colon = tested on: COLO 205 colon
SF-539 CNS = tested on: SF-539 CNS
HS 578T breast = tested on: HS 578T breast
SR leukemia = tested on: SR leukemia
MOLT-4 leukemia = tested on: MOLT-4 leukemia
MDA-MB-435 = tested on: MDA-MB-435
MDA-MB-231 breast = tested on: MDA-MB-231 breast
HOP-92 NSCLC = tested on: HOP-92 NSCLC
OVCAR-3 ovarian = tested on: OVCAR-3 ovarian
K-562 leukemia = tested on: K-562 leukemia
OVCAR-8 ovarian = tested on: OVCAR-8 ovarian
OVCAR-5 ovarian = tested on: OVCAR-5 ovarian
SK-MEL-28 melanoma = tested on: SK-MEL-28 melanoma
SK-MEL-5 melanoma = tested on: SK-MEL-5 melanoma
ACHN renal = tested on: ACHN renal
SN12C renal = tested on: SN12C renal
U251 CNS = tested on: U251 CNS
A549 NSCLC = tested on: A549 NSCLC
HCT-15 colon = tested on: HCT-15 colon
HL-60(TB) leukemia = tested on: HL-60(TB) leukemia
SK-OV-3 ovarian = tested on: SK-OV-3 ovarian
SF-295 CNS = tested on: SF-295 CNS
HOP-62 NSCLC = tested on: HOP-62 NSCLC
RXF 393 renal = tested on: RXF 393 renal

**Q.** What does the source list for `CC(=O)Oc1ccc(C2=Cc3ccc(OC(C)=O)cc3OC2C)cc1` (centres undefined)?
**A.** GI50 (UACC-257 melanoma): 15 µM; TGI (UACC-257 melanoma): 64.1 µM; GI50 (SF-268 CNS): 3.44 µM; TGI (SF-268 CNS): 30.6 µM; GI50 (CCRF-CEM leukemia): 0.525 µM; TGI (CCRF-CEM leukemia): 22.5 µM; GI50 (IGROV1 ovarian): 3.41 µM; TGI (IGROV1 ovarian): 17 µM; GI50 (MCF7 breast): 6.28 µM; TGI (MCF7 breast): 52.3 µM; GI50 (DU-145 prostate): 3.27 µM; TGI (DU-145 prostate): 13.9 µM; GI50 (OVCAR-4 ovarian): 14.2 µM; TGI (OVCAR-4 ovarian): 81.4 µM; GI50 (SK-MEL-2 melanoma): 23.4 µM; TGI (SK-MEL-2 melanoma): 78.5 µM; GI50 (TK-10 renal): 20 µM; TGI (TK-10 renal): > 100 µM; GI50 (EKVX NSCLC): 2.38 µM; TGI (EKVX NSCLC): 13.5 µM; GI50 (LOX IMVI melanoma): 4.09 µM; TGI (LOX IMVI melanoma): 26.2 µM; GI50 (UACC-62 melanoma): 4.61 µM; TGI (UACC-62 melanoma): 25.1 µM; GI50 (M14 melanoma): 4.11 µM; TGI (M14 melanoma): 38.1 µM; GI50 (HCT-116 colon): 4.87 µM; TGI (HCT-116 colon): 17.9 µM; GI50 (NCI-H460 lung): 3.35 µM; TGI (NCI-H460 lung): 13.2 µM; GI50 (HCC-2998 colon): 11.1 µM; TGI (HCC-2998 colon): 72 µM; GI50 (RPMI-8226 leukemia): 0.59 µM; TGI (RPMI-8226 leukemia): 16 µM; GI50 (786-0 renal): 4.1 µM; TGI (786-0 renal): 33.8 µM; GI50 (NCI-H522 lung): 3.58 µM; TGI (NCI-H522 lung): 23.1 µM; GI50 (BT-549 breast): 4.66 µM; TGI (BT-549 breast): 69.9 µM; GI50 (KM12 colon): 5.97 µM; TGI (KM12 colon): 23.2 µM; GI50 (CAKI-1 renal): 2.31 µM; TGI (CAKI-1 renal): 5.73 µM; GI50 (A498 renal): 2.25 µM; TGI (A498 renal): 7.95 µM; GI50 (SW-620 colon): 6.33 µM; TGI (SW-620 colon): 29.8 µM; GI50 (SNB-75 CNS): 3.48 µM; TGI (SNB-75 CNS): 29.7 µM; GI50 (NCI/ADR-RES ovarian): 3.57 µM; TGI (NCI/ADR-RES ovarian): 73.1 µM; GI50 (NCI-H23 lung): 5.3 µM; TGI (NCI-H23 lung): > 100 µM; GI50 (SNB-19 CNS): 14.7 µM; TGI (SNB-19 CNS): > 100 µM; GI50 (T-47D breast): 12.7 µM; TGI (T-47D breast): 60.5 µM; GI50 (NCI-H226 lung): 4.96 µM; TGI (NCI-H226 lung): 53.8 µM; GI50 (PC-3 prostate): 5.8 µM; TGI (PC-3 prostate): > 100 µM; GI50 (UO-31 renal): 2.05 µM; TGI (UO-31 renal): 6.65 µM; GI50 (HT29 colon): 20.7 µM; TGI (HT29 colon): > 100 µM; GI50 (COLO 205 colon): 27.9 µM; TGI (COLO 205 colon): > 100 µM; GI50 (SF-539 CNS): 2.51 µM; TGI (SF-539 CNS): 9.07 µM; GI50 (HS 578T breast): 2.75 µM; TGI (HS 578T breast): 7.81 µM; GI50 (SR leukemia): 1.7 µM; TGI (SR leukemia): 9.95 µM; GI50 (MOLT-4 leukemia): 1.97 µM; TGI (MOLT-4 leukemia): 19.4 µM; GI50 (MDA-MB-435): 0.63 µM; TGI (MDA-MB-435): 15 µM; GI50 (MDA-MB-231 breast): 5.06 µM; TGI (MDA-MB-231 breast): 63.7 µM; GI50 (HOP-92 NSCLC): 6.74 µM; TGI (HOP-92 NSCLC): > 100 µM; GI50 (OVCAR-3 ovarian): 3.33 µM; TGI (OVCAR-3 ovarian): 15.3 µM; GI50 (K-562 leukemia): 3.05 µM; TGI (K-562 leukemia): > 100 µM; GI50 (OVCAR-8 ovarian): 4.41 µM; TGI (OVCAR-8 ovarian): > 100 µM; GI50 (OVCAR-5 ovarian): 21.1 µM; TGI (OVCAR-5 ovarian): > 100 µM; GI50 (SK-MEL-28 melanoma): 10.3 µM; TGI (SK-MEL-28 melanoma): 43.4 µM; GI50 (SK-MEL-5 melanoma): 7.24 µM; TGI (SK-MEL-5 melanoma): 29.9 µM; GI50 (ACHN renal): 2.29 µM; TGI (ACHN renal): > 100 µM; GI50 (SN12C renal): 7.08 µM; TGI (SN12C renal): > 100 µM; GI50 (U251 CNS): 4.91 µM; TGI (U251 CNS): 79.9 µM; GI50 (A549 NSCLC): 6.29 µM; TGI (A549 NSCLC): > 100 µM; GI50 (HCT-15 colon): 5.07 µM; TGI (HCT-15 colon): 26.1 µM; GI50 (HL-60(TB) leukemia): 0.645 µM; TGI (HL-60(TB) leukemia): 4.86 µM; GI50 (SK-OV-3 ovarian): 6.56 µM; TGI (SK-OV-3 ovarian): 67 µM; GI50 (SF-295 CNS): 2 µM; TGI (SF-295 CNS): 4.25 µM; GI50 (HOP-62 NSCLC): 6.07 µM; TGI (HOP-62 NSCLC): 57.2 µM; GI50 (RXF 393 renal): 4.11 µM; TGI (RXF 393 renal): 26.4 µM
